Test results from PubChem BioAssay (NCI).
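Cultured in 96-well plates, cells were exposed to test compound for 48 hours across five concentrations. The concentration for full growth arrest is given as TGI.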

Assays:
Assay in all cases: inhibition of tumour cell growth, NCI panel, 48 h
[1] = tested on: HOP-18 NSCLC
[2] = tested on: SK-OV-3 ovarian
[3] = tested on: SK-MEL-5 melanoma
[4] = tested on: HCC-2998 colon
[5] = tested on: HCT-116 colon
[6] = tested on: DMS 114 small cell lung
[7] = tested on: UACC-257 melanoma
[8] = tested on: OVCAR-3 ovarian
[9] = tested on: TK-10 renal
[10] = tested on: CCRF-CEM leukemia
[11] = tested on: COLO 205 colon
[12] = tested on: RXF 393 renal
[13] = tested on: DLD-1 colon
[14] = tested on: RXF-631 renal
[15] = tested on: SNB-75 CNS
[16] = tested on: UO-31 renal
[17] = tested on: OVCAR-4 ovarian
[18] = tested on: A498 renal
[19] = tested on: SF-268 CNS
[20] = tested on: M19-MEL melanoma
[21] = tested on: EKVX NSCLC
[22] = tested on: U251 CNS
[23] = tested on: SK-MEL-28 melanoma
[24] = tested on: OVCAR-8 ovarian
[25] = tested on: LOX IMVI melanoma
[26] = tested on: NCI-H522 lung
[27] = tested on: HOP-62 NSCLC
[28] = tested on: IGROV1 ovarian
[29] = tested on: K-562 leukemia
[30] = tested on: ACHN renal
[31] = tested on: HL-60(TB) leukemia
[32] = tested on: DMS 273 small cell lung
[33] = tested on: SN12C renal
[34] = tested on: SK-MEL-2 melanoma
[35] = tested on: MOLT-4 leukemia
[36] = tested on: M14 melanoma
[37] = tested on: SNB-19 CNS
[38] = tested on: A549 NSCLC
[39] = tested on: HT29 colon
[40] = tested on: KM20L2 colon
[41] = tested on: OVCAR-5 ovarian
[42] = tested on: 786-0 renal
[43] = tested on: SNB-78 CNS
[44] = tested on: SF-539 CNS
[45] = tested on: HCT-15 colon
[46] = tested on: SW-620 colon
[47] = tested on: MALME-3M melanoma
[48] = tested on: NCI-H23 lung
[49] = tested on: SR leukemia
[50] = tested on: LXFL 529 NSCLC
[51] = tested on: KM12 colon
[52] = tested on: NCI-H460 lung
[53] = tested on: UACC-62 melanoma
[54] = tested on: XF 498 CNS
[55] = tested on: SF-295 CNS
[56] = tested on: CAKI-1 renal
[57] = tested on: RPMI-8226 leukemia
[58] = tested on: NCI-H226 lung

CCOC(=O)Cn1c(=O)[nH]c(=O)c2[nH]cnc21
TGI [1]: > 100 µM | TGI [2]: > 100 µM | TGI [3]: > 100 µM | TGI [4]: > 100 µM | TGI [5]: > 100 µM | TGI [6]: > 100 µM | TGI [7]: > 100 µM | TGI [8]: > 100 µM | TGI [9]: > 100 µM | TGI [10]: > 100 µM | TGI [11]: > 100 µM | TGI [12]: > 100 µM | TGI [13]: > 100 µM | TGI [14]: > 100 µM | TGI [15]: > 100 µM | TGI [16]: > 100 µM | TGI [17]: > 100 µM | TGI [18]: > 100 µM | TGI [19]: > 100 µM | TGI [20]: > 100 µM | TGI [21]: > 100 µM | TGI [22]: > 100 µM | TGI [23]: > 100 µM | TGI [24]: > 100 µM | TGI [25]: > 100 µM | TGI [26]: > 100 µM | TGI [27]: > 100 µM | TGI [28]: > 100 µM | TGI [29]: > 100 µM | TGI [30]: > 100 µM | TGI [31]: > 100 µM | TGI [32]: > 100 µM | TGI [33]: > 100 µM | TGI [34]: > 100 µM | TGI [35]: > 100 µM | TGI [36]: > 100 µM | TGI [37]: > 100 µM | TGI [38]: > 100 µM | TGI [39]: > 100 µM | TGI [40]: > 100 µM | TGI [41]: > 100 µM | TGI [42]: > 100 µM | TGI [43]: > 100 µM | TGI [44]: > 100 µM | TGI [45]: > 100 µM | TGI [46]: > 100 µM | TGI [47]: > 100 µM | TGI [48]: > 100 µM | TGI [49]: > 100 µM | TGI [50]: > 100 µM | TGI [51]: > 100 µM | TGI [52]: > 100 µM | TGI [53]: > 100 µM

O=C(CC(=O)N1N=C(c2ccccc2)C(N=Nc2ccccc2Cl)C1=O)Nc1ccccc1Cl (stereo unspecified)
TGI [2]: > 100 µM | TGI [3]: 52.5 µM | TGI [54]: 51.1 µM | TGI [4]: > 100 µM | TGI [5]: > 100 µM | TGI [6]: > 100 µM | TGI [7]: > 100 µM | TGI [8]: 81.3 µM | TGI [9]: 40.6 µM | TGI [55]: 65.3 µM | TGI [11]: > 100 µM | TGI [56]: > 100 µM | TGI [13]: > 100 µM | TGI [14]: > 100 µM | TGI [57]: 57.2 µM | TGI [15]: 49.9 µM | TGI [16]: > 100 µM | TGI [17]: 63.2 µM | TGI [19]: > 100 µM | TGI [20]: > 100 µM | TGI [21]: > 100 µM | TGI [22]: > 100 µM | TGI [23]: > 100 µM | TGI [24]: > 100 µM | TGI [25]: > 100 µM | TGI [26]: > 100 µM | TGI [27]: > 100 µM | TGI [28]: > 100 µM | TGI [29]: > 100 µM | TGI [30]: 99.6 µM | TGI [31]: 25.9 µM | TGI [32]: > 100 µM | TGI [33]: > 100 µM | TGI [34]: > 100 µM | TGI [35]: > 100 µM | TGI [36]: > 100 µM | TGI [37]: > 100 µM | TGI [38]: > 100 µM | TGI [39]: 44.6 µM | TGI [40]: > 100 µM | TGI [41]: > 100 µM | TGI [42]: 49.6 µM | TGI [43]: > 100 µM | TGI [44]: > 100 µM | TGI [45]: > 100 µM | TGI [46]: > 100 µM | TGI [58]: > 100 µM | TGI [48]: > 100 µM | TGI [49]: 54.5 µM | TGI [50]: > 100 µM | TGI [51]: > 100 µM | TGI [52]: > 100 µM | TGI [53]: > 100 µM
